According to patent US20210386709A1, “COMPOSITIONS AND METHODS FOR SUPPRESSING MSUT2” (United States Government As Represented By The Department …, priority 2020, published 2021):

Legend:
PABPN1 = target: T1, PABPN1 (Homo sapiens, UniProt Q86U42); assay: PABPN1 fluorescence polarization counter screen; type: binding
T1 construct: made in house; host or cells: E. coli BL21 (DE3)
T1 sequence (Q86U42 1-306): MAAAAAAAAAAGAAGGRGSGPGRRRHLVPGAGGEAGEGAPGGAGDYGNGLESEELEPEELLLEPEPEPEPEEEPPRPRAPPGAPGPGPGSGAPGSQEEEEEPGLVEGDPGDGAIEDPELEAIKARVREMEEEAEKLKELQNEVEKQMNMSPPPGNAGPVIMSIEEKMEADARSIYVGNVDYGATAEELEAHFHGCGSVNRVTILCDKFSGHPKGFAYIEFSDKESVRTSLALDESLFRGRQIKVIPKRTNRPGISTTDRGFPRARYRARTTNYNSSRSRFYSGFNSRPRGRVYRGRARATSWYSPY
Protocol: A drug repurposing strategy: screening of the NIH Clinical Collection compound library. […] The plan to find suitable lead compounds for drug repurposing began with a screen of the NIH Clinical Collection (NIHCC) library. The NIHCC consists of a diverse array of 700 compounds with historical pharmacological use and well-studied safety profiles. […] An orthogonal poly(A):MSUT2 binding assay allowed the ruling out of assay interference while selectivity against MSUT2 over PABPN1 was determined by a parallel FP assay with PABPN1 as the RBP. […] Thus, the goal was to eliminate compounds interfering with both PABN1 and MSUT2 and focus on compounds truly specific for poly(A):MSUT2 binding.
(§1) Identification and validation of MSUT2 inhibitory compounds from NIHCC library. […] IC50 of each of the previous 8 compounds was determined for PABPN1 using fluorescence polarization (FIG. 11), and a specificity ratio determined (Table 3). An Alpha Screen (AS) assay was developed as an orthogonal screen. Briefly, in this screen, biotinylated RNA binds streptavidin-coated donor beads, while GST-MSUT2 ZF binds glutathione-coated acceptor beads. When donor beads and acceptor beads are brought within close proximity of one another, laser excitation leads to fluorophore emission of the acceptor bead via excited singlet oxygen activating chemiluminescers in the acceptor beads. […] Toxicity of these compounds in a HEK cell model was determined using a standard Promega Cell Titer Glo assay.
(§2) Fluorescence Polarization Assay. […] of stock compound was transferred yielding 10 μM final concentration. […] Fluorescence polarization was calculated by first subtracting background from a buffer-only control well and then using the equation

GST-MSUT2 = target: T2, GST-MSUT2 (Homo sapiens, UniProt Q6PJT7); assay: Alpha Screen assay of biotinylated poly(A) RNA:GST-MSUT2 binding; details: orthogonal dose-response validation
T2 construct: Targeted construct consisted of the c-terminal end (dark blue and amino acids 601-736) of MSUT2; made in house; host or cells: E. coli BL21 (DE3)
T2 sequence (Q6PJT7 601-736): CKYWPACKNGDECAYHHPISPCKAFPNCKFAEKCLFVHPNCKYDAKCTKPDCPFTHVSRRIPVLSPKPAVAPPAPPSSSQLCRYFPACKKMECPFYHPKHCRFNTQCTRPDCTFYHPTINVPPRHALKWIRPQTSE
Protocol: Alpha Screen Assay. Samples were set up in 384 well Perkin Elmer white opaque-bottom plates (PE06). A total reaction volume of […] was plated in 384 format using a CyBio Well Vario (6 μL of donor beads (10 μg/mL), 3 μL biotinylated RNA (250 nM), 3 μL GST-MSUT2 protein (250 nM) per well). 50 nL of compounds were transferred to wells via CyBio Vario equipped with Pin Tool. This mixture was incubated at room temperature for 30 minutes away from light. Next 3 μL of acceptor beads (1.25 μg/mL) was added. Plates were incubated at room temperature away from light for 60 minutes and subsequently read on a Perkin Elmer EnVision multimode microplate reader equipped with stackers using a standard 384-well Alpha Assay software protocol.
Results. Alpha Screen design and underlying principle. Alpha Screen technology relies on donor beads, coated with a hydrogel excitable by 680 nm, brought within close proximity to an acceptor bead leading to light emission and detection. In this assay, streptavidin coated donor beads tightly bind to biotinylated-poly(A) RNA while the glutathione-coated acceptor bead binds to GST-tagged MSUT2 protein. […] When this interaction is blocked by an inhibitor, the proximity threshold for donor and acceptor beads is not met, singlet oxygen transference cannot occur, and light is not emitted by the acceptor bead (FIG. 1a).
Identification and validation of MSUT2 inhibitory compounds from NIHCC library. The single-point primary screen was conducted in duplicate and utilized the FP assay conditions determined herein (e.g., 125 nM MSUT2 RNABP and 10 nM FAM-RNA probe) with 10 μM library compounds added in a 96-well format. […] Compound specificity was empirically tested by counter screening against PABPN1, a regulator of the length of mRNA poly(A) tails (Apponi, L. H. et al. Hum Mol Genet 19, 1058-1065, (2010); and Benoit, B. et al. Dev Cell 9, 511-522, (2005)). IC50 of each of the previous 8 compounds was determined for PABPN1 using fluorescence polarization (FIG. 11), and a specificity ratio determined (Table 3). An Alpha Screen (AS) assay was developed as an orthogonal screen. Briefly, in this screen, biotinylated RNA binds streptavidin-coated donor beads, while GST-MSUT2 ZF binds glutathione-coated acceptor beads. […] Toxicity of these compounds in a HEK cell model was determined using a standard Promega Cell Titer Glo assay.
Alpha Screen Assay. […] The plate was then incubated again at room temperature away from light for 60 minutes and subsequently read on a Perkin Elmer EnSight multimode microplate reader using a standard 96-well Alpha Assay protocol.

elderly patients = details: 10 year study of 20,215 elderly patients; cited from earlier work
[1] = system: rat model of chronic cerebral hypoperfusion; details: cited from earlier work
MSUT2 ZF = target: T3, MSUT2 ZF (Homo sapiens, UniProt Q6PJT7); assay: Fluorescence polarization assay of FAM-poly(A) RNA:MSUT2 ZF binding
T3 construct: Targeted construct consisted of the c-terminal end (dark blue and amino acids 601-736) of MSUT2; made in house; host or cells: E. coli BL21 (DE3)
T3 sequence (Q6PJT7 601-736): T2 sequence (Q6PJT7 601-736)
Protocol: Fluorescence Polarization Assay. […] 2 μL of compound was transferred for a final concentration of 10 μM. […] Fluorescence polarization was calculated by first subtracting background from a buffer-only control well and then using the equation
Results and Discussion. A high-throughput fluorescence polarization assay for inhibition of poly(A):MSUT2 RNA interaction. […] In order to screen potential inhibitors of MSUT2 RBP and RNA by FP, fluorescent FAM (fluorescein amidite)-labeled poly(A)15 RNA (FAM-RNA) and recombinant MSUT2 ZF (zinc finger) protein expressing constructs were generated (FIG. 7a). […] Inhibition of the interaction results in unbound FAM-RNA tumbling at a relatively rapid rate and emitting non-polarized light (FIG. 7b).
To determine the concentrations of both MSUT2 ZF protein and FAM-RNA probe useful in the methods described herein, a two dimensional titration of protein and RNA concentrations in 96-well format was performed. […] Next, the binding constant between MSUT2 ZF and FAM-RNA was determined by holding FAM-RNA constant at 10 nM while increasing MSUT2 ZF concentration.
as §1, §2

[2] = in vivo; cited from earlier work
poly(A) = details: cited from earlier work
[3] = target: 3′,5′-cyclic phosphodiesterase; details: read-out: Ki (nM) for Known Target; cited from earlier work

Protocol for HEK-293 cells: Cell culture and cytotoxicity screen. […] Cell viability was assessed as using Promega Cell Titer Glo (Promega G7570) per manufacturer protocol. Briefly, HEK-293 cells were grown to 70% confluence in a 96 well plate were treated with indicated concentrations of compounds and incubated for 72 hours at 37° C. Plates were read for luminescence on Perkin Elmer Enspire Alpha.
Cell viability was assessed. Briefly, HEK-293 cells grown to 70% confluence in a 96 well dish were treated with varying concentrations of compound (final concentration of 2% DMSO) and incubated for 72 hours. Next, Promega Cell Titer Glo assay was used to assess viability per manufacturer instructions (Promega G7570).

CNCC[C@H](Oc1cccc2ccccc12)c1cccs1 [Duloxetine]
IC50PABPN1 (PABPN1; fluorescence polarization counter screen, unit not given): None
inhibition activity by Alpha Screen (AS) (GST-MSUT2): dose-dependent inhibition activity
risk of dementia (elderly patients): associated with reduced risk of dementia
neuronal loss in the hippocampus [1]: attenuated neuronal loss in the hippocampus

O=S(=O)(O)c1cc(N=C=S)ccc1C=Cc1ccc(N=C=S)cc1S(=O)(=O)O [4,4-diisothiocyanostilbene-2,2′-sulfonic acid]
toxicity (effect on cell viability) (HEK-293 cells): relatively non-toxic at the doses tested

CC(C)/N=c1\cc2n(-c3ccc(Cl)cc3)c3ccccc3nc-2cc1Nc1ccc(Cl)cc1 [Clofazimine]
Ki (MSUT2 ZF; calculated by Cheng Prusof equation Ki=(IC50)/[(L/Kd)+1], FP dose response, read-out: Ki (nm) for MSUT2): 978 nM
IC50 (MSUT2 ZF; read-out: IC50MSUT2): 990 nM
IC50 (PABPN1; fluorescence polarization counter screen, unit inferred, read-out: IC50PABPN1): 50600 nM
PABPN1/MSUT2 specificity ratio (PABPN1; ratio of FP IC50s): 51.07
inhibition activity by Alpha Screen (AS) (GST-MSUT2): dose-dependent inhibition activity
crossing of the blood brain barrier [2]: unable to cross the blood brain barrier
interaction with poly(A) (poly(A)): little interaction

OCCN(CCO)c1nc(N2CCCCC2)c2nc(N(CCO)CCO)nc(N3CCCCC3)c2n1 [Dipyridamole]
Ki (nm) for MSUT2 (MSUT2 ZF; calculated by Cheng Prusof equation Ki=(IC50)/[(L/Kd)+1], FP dose response): failed DR
Ki [3]: 1000 nM
